Experimental data from PubChem BioAssay (NCI).
Where “and” joins values, the source holds several entries; their conditions need not be identical. Identical values can stand only once.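 Step 1: Grow cells in 96-well plates. Step 2: Expose to compound for 48 hours at 5 concentrations. Step 3: Interpolate endpoints linearly; if unreached, use highest concentration. The concentration for 50% growth inhibition is given as GI50. At the TGI there is no net growth.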

Legend:
Experiment in all cases: inhibition of tumour cell growth, NCI panel, 48 h
[1] = system: A549 NSCLC
[2] = system: BT-549 breast
[3] = system: HOP-62 NSCLC
[4] = system: IGROV1 ovarian
[5] = system: KM12 colon
[6] = system: LOX IMVI melanoma
[7] = system: OVCAR-3 ovarian
[8] = system: PC-3 prostate
[9] = system: SK-MEL-28 melanoma
[10] = system: SR leukemia

SMILES | GI50 [1] | TGI [1] | GI50 [2] | TGI [2] | GI50 [3] | GI50 [4] | TGI [4] [µM] | GI50 [5] | TGI [5] | GI50 [6] | TGI [6] | GI50 [7] | TGI [7] [µM] | TGI [8] | GI50 [9] | TGI [9] | GI50 [10] [µM] | TGI [3] [µM] | GI50 [8] | TGI [10] [µM]
CC[C@@]1(O)C(=O)OCc2c1cc1n(c2=O)Cc2cc3c(Cl)c4c(cc3nc2-1)OCO4 | < 0.001 µM | 1.68 µM and 3.7 µM | < 0.001 µM | 0.897 µM and 0.382 µM | < 0.001 µM | 0.121 µM and 0.285 µM | > 100 | 0.162 µM and 0.108 µM | > 100 µM | < 0.001 µM | 0.218 µM and 0.321 µM | 0.653 µM and 1.77 µM | > 100 | > 100 µM | 0.442 µM and 1.18 µM | > 100 µM | < 0.001 | – | – | –
COC(=O)c1c2c(c(C)[n+]([O-])c1C)C(=O)C=C(NCc1ccc(Br)cc1)C2=O | 0.705 µM | 2.74 µM | 1.15 µM | 2.53 µM | 1.05 µM | 0.473 µM | 2.14 | 0.171 µM | 1.81 µM | 0.07 µM | 1.62 µM | 0.252 µM | 0.845 | 3.37 µM | 0.987 µM | 2.72 µM | 1.7 | 2.47 | 0.428 µM | > 100
CC(=O)Nc1cc(C(c2ccccc2)c2ccccc2)cc(C(c2ccccc2)c2ccccc2)c1C | 4.95 µM | > 100 µM | 8.2 µM | > 100 µM | > 100 µM | 32.5 µM | > 100 | 6.19 µM | > 100 µM | 7.98 µM | > 100 µM | 7.33 µM | > 100 | > 100 µM | > 100 µM | > 100 µM | – | > 100 | 4.13 µM | –
Cc1ccc(-c2c3c(N)nc(-c4ccncc4)nc3nc3c2c(C)nn3-c2ccccc2)cc1 | 2.62 µM | > 37.5 µM | 7.38 µM | 17.9 µM | 0.647 µM | 22.5 µM | > 37.5 | 31.4 µM | > 37.5 µM | 2.33 µM | 14.5 µM | 7.65 µM | 20.1 | > 37.5 µM | 7.69 µM | > 37.5 µM | 7.09 | 1.95 | 32.3 µM | 23.8
Cc1ccc2c(n1)C(=O)C(Cl)=C(Nc1ccc(N3CCN(C)CC3)cc1)C2=O | 14.6 µM | 30 µM | 1.61 µM | 2.97 µM | 3.63 µM | 1.87 µM | 3.6 | 10.2 µM | 23.5 µM | 1.78 µM | 3.22 µM | 1.63 µM | 3.13 | 3.16 µM | 1.88 µM | 3.31 µM | 2.78 | 14.7 | 1.57 µM | 9.06
O=S1CCN(Cc2ccc(-c3ccc4ncnc(Nc5ccc(OCc6ccccc6)c(F)c5)c4c3)o2)CC1 | 7.55 µM | > 25 µM | 7.88 µM | > 22.8 µM | 13.8 µM | 1.29 µM | > 25 | 10.1 µM | > 25 µM | 6.39 µM | > 23.4 µM | 7.93 µM | > 25 | > 25 µM | 6.8 µM | > 20.5 µM | 9.29 | > 25 | 9.98 µM | > 25
COc1cc(C2CC(=O)c3c(C)nn(-c4nc5ccccc5[nH]4)c3C2)cc(OC)c1OC (stereo not given) | – | – | 76.6 µM | > 100 µM | 3.61 µM | – | – | > 100 µM | > 100 µM | – | – | – | – | > 100 µM | > 100 µM | > 100 µM | > 100 | > 100 | > 100 µM | > 100
Cc1ccc(C)c(NC(=O)/C(=N\N)C(c2cnc3ccc([N+](=O)[O-])cc3n2)[N+](=O)[O-])c1 (stereo not given) | – | > 100 µM | – | > 100 µM | – | – | > 100 | – | > 100 µM | – | > 100 µM | – | > 100 | > 100 µM | – | > 100 µM | – | > 100 | – | > 100
Cc1ccn2c(-c3csc(Nc4cccc(O)c4)n3)c(C)nc2c1 | 0.896 µM | 26.1 µM | 0.781 µM | 33.6 µM | 0.638 µM | 4.43 µM | 29.1 | 0.273 µM | 16.4 µM | – | – | 0.32 µM | 0.914 | 29.6 µM | 1.51 µM | 36.3 µM | 0.2 | 19.1 | 0.609 µM | –
O=C(NCCSSCCNC(=O)/C(Cc1ccc(O)c(Br)c1)=N/O)/C(Cc1ccc(O)c(Br)c1)=N/O | – | 15.5 µM | – | 15 µM | – | – | 7.15 | – | 10.5 µM | – | 3.31 µM | – | 6.06 | 8.21 µM | – | 16.3 µM | – | 6.1 | – | 7.08
Nc1nc2c(c(=O)[nH]1)N=C(COP(=O)(O)OP(=O)(O)O)CN2 | – | > 100 µM | – | > 100 µM | – | – | > 100 | – | > 100 µM | – | > 100 µM | – | – | > 100 µM | – | > 100 µM | – | > 100 | – | > 100
CCOC(=O)C1=C(C)NC(C)=C(C(=O)OCC)C1c1cc(Br)c(O)c(OC)c1 | 4.11 µM | 18.8 µM | 2.8 µM | 10.6 µM | 4.37 µM | 7.39 µM | 37.2 | 3.74 µM | 14 µM | 5.23 µM | 18.6 µM | 2.34 µM | 5.15 | 27.2 µM | 4.32 µM | 16.7 µM | 2.01 | 14.7 | 3.62 µM | 21.2
Cc1cn(C2CC(N=[N+]=[N-])C(CO)O2)c(=O)[nH]c1=O (stereo not given) | 325 µM | > 1000 µM | – | > 1000 µM | > 1000 µM | > 1000 µM | > 1000 | 472 µM | > 1000 µM | 532 µM | > 1000 µM | > 1000 µM | > 1000 | > 1000 µM | – | – | – | > 1000 | – | > 1000
CC[C@@]1(OC(=O)C(N)CCC(=O)O)C(=O)OCc2c1cc1n(c2=O)Cc2cc3ccccc3nc2-1 (stereo not given in full) | – | 3.37 µM | – | > 100 µM | – | – | 4.35 | – | 6.1 µM | – | 0.482 µM | – | 2.07 | > 100 µM | – | 51.8 µM | – | 0.125 | – | –
Cc1ccc(-n2nnc3c(sc4ccccc43)c2=O)cc1 | 5.23 µM | > 100 µM | > 100 µM | > 100 µM | 3.8 µM | 4.16 µM | > 100 | 3.81 µM | > 100 µM | 4.09 µM | > 100 µM | 17 µM | > 100 | > 100 µM | > 100 µM | > 100 µM | > 100 | 26.5 | 7.73 µM | > 100
O=C(O)c1ccccc1-c1ccccc1C(=O)Nc1ccc2c(c1)Cc1ccccc1-2 | – | 97.5 µM | – | 69.4 µM | – | – | > 100 | – | > 100 µM | – | 54.5 µM | – | 69.9 | > 100 µM | – | > 100 µM | – | > 100 | – | 65.1
COc1ccc(C2=NNC(c3cc(Cc4ccc(O)c(C5CC(c6ccc(OC)cc6)=NN5)c4)ccc3O)C2)cc1 (stereo not given) | 6.84 µM | > 100 µM | 4.66 µM | 51.6 µM | 8.64 µM | 13.7 µM | > 100 | 22.6 µM | > 100 µM | 7.38 µM | 32.3 µM | 18.8 µM | > 100 | > 100 µM | 10.2 µM | 34.1 µM | 16.4 | > 100 | 61.4 µM | > 100
O=C1NC(=O)C(N2CCc3ccccc32)=C1c1ccc(Cl)cc1 | > 25 µM | > 25 µM | > 15.5 µM | > 25 µM | > 25 µM | > 25 µM | > 25 | > 25 µM | > 25 µM | > 25 µM | > 25 µM | > 25 µM | > 25 | > 25 µM | > 25 µM | > 25 µM | – | > 25 | > 22.8 µM | –
O=C(CCCCCNC1=CC(=O)c2ccccc2C1=O)NCCC[Te]c1ccccc1 | 0.32 µM | 1.54 µM | 0.297 µM | 0.916 µM | 0.272 µM | 0.518 µM | 1.89 | 0.351 µM | 1.3 µM | 0.3 µM | 1.4 µM | 0.676 µM | 2.22 | 2.58 µM | 1.21 µM | 3.34 µM | – | 0.731 | 0.25 µM | –
O=C(NC1CCNCC1)c1[nH]ncc1NC(=O)c1c(Cl)cccc1Cl | 0.637 µM and 0.86 µM | > 100 µM | 0.588 µM and 0.471 µM | 7.89 µM | 0.451 µM and 0.414 µM | 0.681 µM and 0.362 µM | > 55.2 | 0.297 µM and 0.305 µM | 1.66 µM and > 10 µM | 0.281 µM and 0.261 µM | > 100 µM | 0.325 µM and 0.386 µM | > 27.9 | 5.01 µM and > 10 µM | 0.43 µM and 0.568 µM | 2.32 µM and 3.96 µM | – | > 100 | 0.332 µM and 0.323 µM | –
O=NNc1ccc(Sc2ccc3ccccc3c2)cn1 | – | > 100 µM | – | 77.1 µM | – | – | > 100 | – | > 100 µM | – | – | – | > 100 | > 100 µM | – | > 100 µM | – | 50.2 | – | > 100
